ChEMBL document CHEMBL1201862, “PubChem BioAssay data set” (2004)
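Method: 48-hour compound exposure of cells in 96-well plates, five concentrations, linear interpolation of endpoints. GI50 marks 50% less growth.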 Activity calls are given as the source filed them. Rule as the data show it: active = GI50 up to about 1.1 µM and inactive = higher.

How the values were obtained:
Experiment in all cases: NCI tumour cell line growth inhibition, 48 h
[1] = test system: A549
[2] = test system: COLO 205
[3] = test system: HL-60
[4] = test system: IGROV-1
[5] = test system: M14
[6] = test system: MOLT-4
[7] = test system: Malme-3M
[8] = test system: NCI-H23
[9] = test system: NCI-H522
[10] = test system: OVCAR-4
[11] = test system: OVCAR-5
[12] = test system: OVCAR-8
[13] = test system: RXF 393
[14] = test system: SF-295
[15] = test system: SK-MEL-5
[16] = test system: SNB-75
[17] = test system: SR
[18] = test system: SW-620
[19] = test system: U-251
[20] = test system: UACC-62

Measured: GI50

O=C(Nc1nccs1)c1c(O)nc2sccn2c1=O
inactive: [1] > 10 µM | [2] > 10 µM | [3] > 10 µM | [4] > 10 µM | [5] > 10 µM | [6] > 10 µM | [7] > 10 µM | [8] > 10 µM | [9] > 10 µM | [10] > 10 µM | [11] > 10 µM | [12] > 10 µM | [13] > 10 µM | [14] > 10 µM | [15] > 10 µM | [16] > 10 µM | [17] > 10 µM | [18] > 10 µM | [19] > 10 µM | [20] > 10 µM

COc1cc(C(=O)CC2OC(=O)C(Cl)=C2Cl)ccc1Cl (stereo not given)
inactive: [1] > 100 µM | [2] > 100 µM | [3] > 100 µM | [4] > 100 µM | [5] > 100 µM | [6] > 100 µM | [7] > 100 µM | [8] > 100 µM | [9] > 100 µM | [10] > 100 µM | [11] > 100 µM | [12] > 100 µM | [13] > 100 µM | [14] > 100 µM | [15] > 100 µM | [16] > 100 µM | [17] > 100 µM | [18] > 100 µM | [19] > 100 µM | [20] > 100 µM

N#CC(C#N)=C1CCC2C(=C(C#N)C#N)CCC12 (stereo not given)
inactive: [1] > 100 µM | [2] > 100 µM | [3] > 100 µM | [4] > 100 µM | [5] > 100 µM | [6] > 100 µM | [7] > 100 µM | [8] > 100 µM | [9] > 100 µM | [10] > 100 µM | [11] > 100 µM | [12] > 100 µM | [13] > 100 µM | [14] > 100 µM | [15] > 100 µM | [16] > 100 µM | [17] > 100 µM | [18] > 100 µM | [19] > 100 µM | [20] > 100 µM

C=C=C(Sc1ccccc1)C(C)(C)OC(C)=O
inactive: [1] 23.9 µM | [2] 18.4 µM | [3] 26.7 µM | [4] 17.6 µM | [5] 17.4 µM | [6] 34.5 µM | [7] 18.3 µM | [8] 17.2 µM | [9] 15.6 µM | [10] 31.2 µM | [11] 20.3 µM | [12] 20.2 µM | [13] 14.7 µM | [14] 18.2 µM | [15] 15.8 µM | [16] 21.2 µM | [17] 27.9 µM | [18] 17.6 µM | [19] 16.9 µM | [20] 14.3 µM
